In US20170073337A1, “DIHYDROTHIAZINE AND DIHYDROOXAZINE DERIVATIVES HAVING BACE1 INHIBITORY ACTIVITY” (Shionogi & Co., Ltd., priority 2014, published 2017):
≈ marks a conversion by molar mass, not a printed value. Like-named read-outs stand apart in the source and are kept apart here.

Columns and labels:
CYP3A4 = molecular target: T1, CYP3A4 (Homo sapiens, UniProt P08684); assay: CYP inhibition test (CYP3A4); assay type: in vitro ADME; conditions: pooled human liver microsomes; terfenadine hydroxylation
T1 construct: The commercially available pooled human liver microsomes are used as an enzyme resource; from tissue; host or cells: pooled human liver microsomes
In short: (§1)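 Pooled human liver microsomes (0.2 mg protein/mL) with compound at 1, 5, 10 and 20 μmol/L and NADPH, at 37 °C. Marker substrates: dextromethorphan 5 μmol/L (2D6), terfenadine 1 μmol/L (3A4), S-mephenytoin 50 μmol/L (2C19), tolbutamide 100 μmol/L (2C9). Metabolites were measured by LC/MS/MS, and IC50 was derived by logistic fit of remaining activity against the DMSO control.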

Solubility test = assay type: physicochemical
In short: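 Dissolved concentration determined by LC/MS or SPE/MS (absolute calibration) in diluted filtrates, after 2 μL of 10 mmol/L DMSO stock was added to 198 μL JP 1st or JP 2nd fluid and equilibrated either 1 h with shaking at room temperature or 16 h standing at 25 °C.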

CYP2C19 = molecular target: T2, CYP2C19 (Homo sapiens, UniProt P33261); assay: CYP inhibition test (CYP2C19); assay type: in vitro ADME; conditions: pooled human liver microsomes; mephenytoin 4′-hydroxylation
T2 construct: The commercially available pooled human liver microsomes are used as an enzyme resource; from tissue; host or cells: pooled human liver microsomes
In short: as §1

CYP1A2 = molecular target: T3, CYP1A2 (Homo sapiens, UniProt P05177); assay: CYP inhibition test (CYP1A2); assay type: in vitro ADME; conditions: pooled human liver microsomes; 7-ethoxyresorufin O-deethylation
T3 construct: The commercially available pooled human liver microsomes are used as an enzyme resource; from tissue; host or cells: pooled human liver microsomes
T3 sequence (P05177 1-516): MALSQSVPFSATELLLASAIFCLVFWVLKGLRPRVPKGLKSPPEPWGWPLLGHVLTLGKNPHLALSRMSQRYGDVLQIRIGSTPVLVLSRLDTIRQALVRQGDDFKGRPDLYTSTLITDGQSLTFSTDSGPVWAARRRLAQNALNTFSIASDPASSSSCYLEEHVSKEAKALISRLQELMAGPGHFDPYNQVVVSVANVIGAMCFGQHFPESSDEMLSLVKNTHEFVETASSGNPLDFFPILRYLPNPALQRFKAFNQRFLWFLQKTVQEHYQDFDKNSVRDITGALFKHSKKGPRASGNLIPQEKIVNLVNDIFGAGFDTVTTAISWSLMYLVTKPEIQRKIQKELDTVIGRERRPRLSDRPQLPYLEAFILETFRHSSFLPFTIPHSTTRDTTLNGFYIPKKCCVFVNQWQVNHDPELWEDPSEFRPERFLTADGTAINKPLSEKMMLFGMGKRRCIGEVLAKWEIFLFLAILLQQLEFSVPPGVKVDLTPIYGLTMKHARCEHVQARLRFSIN
In short: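 Inhibition of CYP1A2 was measured in commercially available pooled human liver microsomes (0.2 mg protein/mL) using 7-ethoxyresorufin O-deethylation with 0.5 μmol/L ethoxyresorufin. Test compound at 1, 5, 10, 20 μmol/L in […] Hepes buffer was incubated at 37° C. after NADPH addition; methanol/acetonitrile=1/1 (v/v) stopped the reaction, and resorufin was read fluorescently.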

Metabolic stability test = assay type: in vitro ADME; conditions: human liver microsomes, 37° C., 30 minutes, NADPH
In short: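 Parent compound was measured by LC/MS/MS or SPE/MS after a methanol/acetonitrile quench and reported as % remaining, with the 0 min sample set to 100%. Incubations ran 30 min at 37 °C in pH 7.4 Tris buffer containing pooled human liver microsomes at 0.5 mg protein/mL and 1 mmol/L NADPH.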

[1] = molecular target: T4, human ether-a-go-go related gene (hERG) channel (Homo sapiens, UniProt Q12809); assay: hERG test; assay type: cell-based; conditions: % inhibition of IKr tail peak current at 3 uM; CHO cells expressing hERG
T4 construct: expressed in transfected cells; host or cells: CHO cells
In short: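 IKr was recorded from hERG-expressing CHO cells by automated whole-cell patch clamp at a holding potential of −80 mV. A −50 mV leak step was followed by a 2 s depolarization to +20 mV and a 2 s repolarization to −50 mV, when current was measured.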

[2] = JP 1st fluid, 25 °C, pH 1.2, simulated gastric fluid, kinetic from dmso stock, read-out: JP1
[3] = JP 2nd fluid A, 25 °C, pH 6.8, aqueous buffer, kinetic from dmso stock, read-out: JP2_μM
[4] = JP 1st fluid, pH 1.2, simulated gastric fluid, kinetic from dmso stock, read-out: JP1
[5] = JP 2nd fluid A, pH 6.8, aqueous buffer, kinetic from dmso stock, read-out: JP2_μM
[6] = solubility in JP 2nd fluid B, 1% DMSO, *2: shaken for 1 hour at room temperature, read-out: JP2_μM
[7] = JP 2nd fluid B, pH 6.8, aqueous buffer, kinetic from dmso stock, read-out: JP2_μM

T2 sequence (P33261 whole entry): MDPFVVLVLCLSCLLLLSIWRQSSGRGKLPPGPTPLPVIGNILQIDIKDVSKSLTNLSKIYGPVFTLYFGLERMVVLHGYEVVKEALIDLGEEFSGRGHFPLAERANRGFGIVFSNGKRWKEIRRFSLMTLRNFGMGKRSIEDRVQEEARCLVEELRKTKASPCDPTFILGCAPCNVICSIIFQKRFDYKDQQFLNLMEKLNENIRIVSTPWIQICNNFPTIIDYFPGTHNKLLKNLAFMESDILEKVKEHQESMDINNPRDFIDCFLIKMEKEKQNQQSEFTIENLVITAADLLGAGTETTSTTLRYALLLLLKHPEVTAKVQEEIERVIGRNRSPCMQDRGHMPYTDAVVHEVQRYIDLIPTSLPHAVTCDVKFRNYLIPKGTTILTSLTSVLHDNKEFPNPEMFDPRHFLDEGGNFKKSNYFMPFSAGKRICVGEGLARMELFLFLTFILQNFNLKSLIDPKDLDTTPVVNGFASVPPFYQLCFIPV
T4 sequence (Q12809 whole entry): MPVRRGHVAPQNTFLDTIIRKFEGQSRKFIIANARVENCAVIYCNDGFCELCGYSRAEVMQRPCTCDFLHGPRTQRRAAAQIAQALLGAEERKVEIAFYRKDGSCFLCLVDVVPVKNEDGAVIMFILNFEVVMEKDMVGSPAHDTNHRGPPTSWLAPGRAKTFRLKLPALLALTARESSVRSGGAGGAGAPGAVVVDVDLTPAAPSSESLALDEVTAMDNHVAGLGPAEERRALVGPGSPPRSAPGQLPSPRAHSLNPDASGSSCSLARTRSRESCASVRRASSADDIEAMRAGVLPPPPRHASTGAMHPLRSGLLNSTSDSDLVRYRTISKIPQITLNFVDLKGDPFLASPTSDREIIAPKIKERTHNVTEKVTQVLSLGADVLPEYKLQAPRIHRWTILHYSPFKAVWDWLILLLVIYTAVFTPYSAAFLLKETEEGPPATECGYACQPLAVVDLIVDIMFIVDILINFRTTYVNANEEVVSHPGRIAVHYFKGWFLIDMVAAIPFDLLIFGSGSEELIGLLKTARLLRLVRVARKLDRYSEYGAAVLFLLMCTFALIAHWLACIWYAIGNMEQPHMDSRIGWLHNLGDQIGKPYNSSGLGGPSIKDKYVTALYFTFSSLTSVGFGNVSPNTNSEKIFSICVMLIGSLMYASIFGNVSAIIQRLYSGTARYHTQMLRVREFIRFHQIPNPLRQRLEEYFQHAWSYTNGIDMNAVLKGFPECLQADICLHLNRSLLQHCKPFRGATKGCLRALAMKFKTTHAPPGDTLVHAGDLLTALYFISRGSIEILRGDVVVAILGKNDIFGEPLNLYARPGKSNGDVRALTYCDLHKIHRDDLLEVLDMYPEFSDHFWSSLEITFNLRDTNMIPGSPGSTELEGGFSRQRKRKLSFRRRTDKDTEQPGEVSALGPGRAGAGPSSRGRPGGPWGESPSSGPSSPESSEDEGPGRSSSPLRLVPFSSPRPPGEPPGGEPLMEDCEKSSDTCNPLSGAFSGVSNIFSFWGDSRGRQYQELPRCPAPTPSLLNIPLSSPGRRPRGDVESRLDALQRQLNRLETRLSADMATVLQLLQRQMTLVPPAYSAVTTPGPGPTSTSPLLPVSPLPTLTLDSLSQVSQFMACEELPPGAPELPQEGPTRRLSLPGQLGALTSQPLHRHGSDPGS
T1 sequence (P08684 whole entry): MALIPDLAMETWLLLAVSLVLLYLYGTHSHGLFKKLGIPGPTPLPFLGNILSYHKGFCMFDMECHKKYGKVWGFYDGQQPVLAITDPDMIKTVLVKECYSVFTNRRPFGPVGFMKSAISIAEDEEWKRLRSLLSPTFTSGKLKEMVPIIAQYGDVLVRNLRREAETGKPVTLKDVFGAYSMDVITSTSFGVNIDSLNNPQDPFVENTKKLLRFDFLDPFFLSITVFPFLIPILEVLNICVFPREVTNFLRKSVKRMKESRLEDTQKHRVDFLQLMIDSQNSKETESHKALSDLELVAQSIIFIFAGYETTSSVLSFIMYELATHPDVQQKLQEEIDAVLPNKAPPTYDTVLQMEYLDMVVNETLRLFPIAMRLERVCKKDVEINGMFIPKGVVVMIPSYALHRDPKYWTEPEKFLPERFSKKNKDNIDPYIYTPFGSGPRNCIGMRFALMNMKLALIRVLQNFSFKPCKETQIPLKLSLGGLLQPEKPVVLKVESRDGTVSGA

SMILES	IC50 (CYP3A4) [µM]	solubility kinetic at 16 h (Solubility test; [2]) [µM]	solubility kinetic at 16 h (Solubility test; [3]) [µM]	IC50 (CYP2C19) [µM]	IC50 (CYP1A2) [µM]	remaining % (Metabolic stability test) [%]	hERG_3 uM_% [1] [%]	solubility kinetic at 1 h (Solubility test; [4]) [µM]	solubility kinetic at 1 h (Solubility test; [5]) [µM]	solubility kinetic at 16 h (Solubility test; [6]) [µM]	solubility kinetic at 1 h (Solubility test; [7]) [µM]
C[C@H]1SC(N)=N[C@](C)(c2nc(NC(=O)c3ccc(C#N)cn3)ccc2F)[C@H]1F [Compound I-1]	≥ 20	> 50	> 50	≥ 20	≥ 20	82.4	–	–	–	–	–
C[C@]1(c2nc(NC(=O)c3ccc(C#N)cn3)ccc2F)N=C(N)S[C@H](CF)[C@@H]1F [Compound I-4]	≥ 20	35.8 (≈ 15.1 µg/mL)	> 50	≥ 20	≥ 20	–	47.9	–	–	–	–
COc1cnc(C(=O)Nc2ccc(F)c([C@@]3(C)N=C(N)S[C@H](C)[C@@H]3F)c2)cn1 [Compound I-8]	≥ 20	46.4 (≈ 18.9 µg/mL)	> 50	≥ 20	≥ 20	–	16.7	–	–	–	–
C[C@]1(c2cc(NC(=O)c3ccc(C#N)cn3)ccc2F)N=C(N)O[C@H](CF)[C@@H]1OCC(F)(F)F [Compound I-10]	≥ 20	40 (≈ 19.3 µg/mL)	> 50	≥ 20	≥ 20	95.6	–	–	–	–	–
COc1cnc(C(=O)Nc2ccc(F)c([C@@]3(C)N=C(N)O[C@H]([C@H](C)F)[C@@H]3F)c2)cn1 [Compound I-17]	≥ 20	–	–	≥ 20	≥ 20	–	19.5	33.9 (≈ 14.4 µg/mL)	> 50	–	–
C[C@H]1[C@@H](C(F)(F)F)OC(N)=N[C@]1(C)c1cc(NC(=O)c2ccc(C#N)cn2)ccc1F [Compound I-28]	≥ 20	40.4 (≈ 17.6 µg/mL)	> 50	≥ 20	≥ 20	–	36.2	–	–	–	–
C[C@H]1[C@@H](C(F)(F)F)OC(N)=N[C@]1(C)c1cc(NC(=O)c2cnc(OCF)cn2)ccc1F [Compound I-30]	≥ 20	39.2 (≈ 18 µg/mL)	> 50	≥ 20	≥ 20	–	15.1	–	–	–	–
C[C@]1(c2cc(NC(=O)c3ccc(C#N)cn3)ccc2F)N=C(N)O[C@H]2[C@@H]1OCC2(F)F [Compound I-35]	≥ 20	> 50	> 50	≥ 20	≥ 20	–	41.1	–	–	–	–
C[C@H]1SC(N)=N[C@](C)(c2cc(NC(=O)c3cnc(OCC(F)F)cn3)ccc2F)[C@H]1F [Compound I-48]	≥ 20	–	–	≥ 20	≥ 20	92.9	–	> 50	39.5 (≈ 18.1 µg/mL)	–	–
COc1ccc(C(=O)Nc2ccc(F)c([C@@]3(C)N=C(N)S[C@H](C)[C@@H]3F)c2)nc1 [Compound I-50]	≥ 20	–	–	≥ 20	≥ 20	–	34.3	> 50	–	>50	–
COc1cnc(C(=O)Nc2ccc(F)c([C@@]3(C)N=C(N)SCC34CC(F)(F)C4)c2)cn1 [Compound I-55]	≥ 10	–	–	≥ 20	≥ 20	–	39.5	> 50	–	>50	–
C[C@]1(c2cc(NC(=O)c3ccc(C#N)cn3)ccc2F)N=C(N)SCC12CC(F)(F)C2 [Compound I-59]	–	–	–	≥ 20	≥ 20	66.8	–	> 50	–	>50	–
C[C@H]1SC(N)=N[C@](C)(c2cc(NC(=O)c3cnc(OCF)cn3)ccc2F)C12CC(F)(F)C2 [Compound I-62]	–	–	–	≥ 20	≥ 20	–	29.6	> 50	–	>50	–
CC#CCOc1cnc(C(=O)Nc2ccc(F)c([C@@]3(C)N=C(N)O[C@H](C(C)(F)F)[C@@H]3F)c2)cn1 [Compound I-76]	–	–	–	≥ 10	≥ 20	–	5.8	> 50	–	–	8.2 (≈ 3.93 µg/mL)
C[C@]1(c2cc(NC(=O)c3ccc(C#N)cn3)ccc2F)N=C(N)O[C@H](C2(F)CC2)[C@@H]1F [Compound I-96]	≥ 20	–	–	≥ 20	≥ 20	101	–	45.8 (≈ 19.7 µg/mL)	–	–	> 50
C[C@]1(c2cc(NC(=O)c3ccc(OCF)cn3)ccc2F)N=C(N)O[C@H](C2(F)CC2)[C@@H]1F [Compound I-101]	≥ 20	–	–	≥ 20	≥ 20	91.8	–	> 50	–	>50.0	–
COc1cnc(C(=O)Nc2cccc([C@@]3(C)N=C(N)S[C@H](C)[C@@H]3F)c2)cn1 [Compound I-103]	≥ 20	–	–	≥ 20	≥ 20	78.3	–	49.4 (≈ 19.2 µg/mL)	–	–	> 50
C[C@H]1SC(N)=N[C@](C)(c2cccc(NC(=O)c3cnc(OCF)cn3)c2)[C@H]1F [Compound I-104]	≥ 20	–	–	≥ 20	≥ 20	77.7	–	40.6 (≈ 16.5 µg/mL)	–	–	> 50
C[C@H]1SC(N)=N[C@](C)(c2cccc(NC(=O)c3cnc(C(F)F)cn3)c2)[C@H]1F [Compound I-106]	≥ 20	–	–	≥ 20	≥ 20	84.1	–	42 (≈ 17.2 µg/mL)	–	–	> 50
